Data from ChEMBL document CHEMBL5241112, “Insights into the recent progress in the medicinal chemistry of pyranopyrimidine analogs” (RSC Med Chem, 2022).
≈ marks a conversion by molar mass, not a printed value.

Experiments:
[1] = Antioxidant activity assessed as DPPH radical scavenging activity at 50 ug/ml incubated for 30 mins by spectrophotometric analysis; format: functional; conditions: dose 50.0 µg/ml
[2] = Antioxidant activity assessed as DPPH radical scavenging activity at 25 ug/ml incubated for 30 mins by spectrophotometric analysis; format: functional; conditions: dose 25.0 µg/ml
HepG2 [3] = experiment: Anticancer activity against human HepG2 cells assessed as reduction in cell viability; format: functional, cell-based
HCT-116 [4] = experiment: cells; conditions: Homo sapiens
DNA topoisomerase II = DNA topoisomerase II (Homo sapiens, UniProt P11388+Q02880); experiment: Inhibition of DNA topoisomerase 2 (unknown origin); format: protein assay
DNA = experiment: Binding affinity to DNA (unknown origin) assessed as DNA intercalation; format: nucleic-acid assay
MCF7 [5] = experiment: Anticancer activity against human MCF7 cells assessed as reduction in cell viability; format: functional, cell-based
Bacillus cereus [6] = experiment: Antimicrobial activity against Bacillus cereus assessed as diameter of inhibition zone at 1.2 mg/ml incubated for 12 hrs by agar disk diffusion method; format: functional; conditions: read-out: DIZ
Pseudomonas aeruginosa [7] = experiment: Antimicrobial activity against Pseudomonas aeruginosa assessed as diameter of inhibition zone at 1.2 mg/ml incubated for 12 hrs by agar disk diffusion method; format: functional; conditions: read-out: DIZ
Staphylococcus aureus [8] = experiment: Antimicrobial activity against Staphylococcus aureus assessed as diameter of inhibition zone at 2.5 mg/ml incubated for 12 hrs by agar disk diffusion method; format: functional; conditions: read-out: DIZ
Escherichia coli [9] = experiment: Antimicrobial activity against Escherichia coli assessed as diameter of inhibition zone at 1.2 mg/ml incubated for 12 hrs by agar disk diffusion method; format: functional; conditions: read-out: DIZ
Staphylococcus aureus [10] = experiment: Antimicrobial activity against Staphylococcus aureus assessed as diameter of inhibition zone at 1.2 mg/ml incubated for 12 hrs by agar disk diffusion method; format: functional; conditions: read-out: DIZ
Pseudomonas aeruginosa [11] = experiment: Antimicrobial activity against Pseudomonas aeruginosa assessed as diameter of inhibition zone at 5.0 mg/ml incubated for 12 hrs by agar disk diffusion method; format: functional; conditions: read-out: DIZ
Staphylococcus aureus [12] = experiment: Antimicrobial activity against Staphylococcus aureus assessed as diameter of inhibition zone at 5.0 mg/ml incubated for 12 hrs by agar disk diffusion method; format: functional; conditions: read-out: DIZ
Escherichia coli [13] = experiment: Antimicrobial activity against Escherichia coli assessed as diameter of inhibition zone at 2.5 mg/ml incubated for 12 hrs by agar disk diffusion method; format: functional; conditions: read-out: DIZ
Escherichia coli [14] = experiment: Antimicrobial activity against Escherichia coli assessed as diameter of inhibition zone at 5.0 mg/ml incubated for 12 hrs by agar disk diffusion method; format: functional; conditions: read-out: DIZ
Pseudomonas aeruginosa [15] = experiment: Antimicrobial activity against Pseudomonas aeruginosa assessed as diameter of inhibition zone at 2.5 mg/ml incubated for 12 hrs by agar disk diffusion method; format: functional; conditions: read-out: DIZ
Bacillus cereus [16] = experiment: Antimicrobial activity against Bacillus cereus assessed as diameter of inhibition zone at 5.0 mg/ml incubated for 12 hrs by agar disk diffusion method; format: functional; conditions: read-out: DIZ
Bacillus cereus [17] = experiment: Antimicrobial activity against Bacillus cereus assessed as diameter of inhibition zone at 2.5 mg/ml incubated for 12 hrs by agar disk diffusion method; format: functional; conditions: read-out: DIZ
NUGC = experiment: Anticancer activity against human NUGC cells assessed as cell growth inhibition incubated for 24 hrs; format: functional, cell-based
DLD-1 = experiment: Anticancer activity against human DLD-1 cells assessed as cell growth inhibition incubated for 24 hrs; format: functional, cell-based; conditions: DLD-1, 24 h
Bacillus subtilis = experiment: Antimicrobial activity against Bacillus subtilis assessed as diameter of inhibition zone by agar well diffusion method; format: functional
Escherichia coli [18] = experiment: Antimicrobial activity against Escherichia coli assessed as diameter of inhibition zone by agar well diffusion method; format: functional
HepG2 [19] = experiment: Anticancer activity against human HepG2 cells assessed as reduction in cell viability incubated for 24 hrs by MTT colorimetric assay; format: functional, cell-based; conditions: HepG2, 24 h
PC-3 [20] = experiment: Anticancer activity against human PC-3 cells assessed as reduction in cell viability; format: functional, cell-based
HCT-116 [21] = experiment: Anticancer activity against human HCT-116 cells assessed as reduction in cell viability incubated for 24 hrs by MTT colorimetric assay; format: functional, cell-based; conditions: HCT-116, 24 h
A549 = experiment: Anticancer activity against human A549 cells assessed as reduction in cell viability incubated for 24 hrs by MTT assay; format: functional, cell-based; conditions: A549, 24 h
MCF7 [22] = experiment: Anticancer activity against human MCF7 cells assessed as reduction in cell viability incubated for 24 hrs by MTT colorimetric assay; format: functional, cell-based; conditions: MCF7, 24 h
[23] = test system: Mycobacterium tuberculosis; experiment: Antitubercular activity against Mycobacterium tuberculosis H37Rv assessed as bacterial growth inhibition at 100 ug/ml; format: functional
Clostridium tetani = experiment: Antibacterial activity against Clostridium tetani MTCC 449 assessed as bacterial growth inhibition by broth microdilution method; format: functional
Salmonella typhimurium = experiment: Antibacterial activity against Salmonella typhimurium MTCC 98 assessed as bacterial growth inhibition by broth microdilution method; format: functional, Salmonella enterica subsp. enterica serovar Typhimurium; conditions: Salmonella enterica
Plasmodium falciparum = experiment: microbe, parasite or virus in culture
Candida albicans = experiment: Antifungal activity against Candida albicans MTCC 3008 assessed as fungal growth inhibition by broth microdilution method; format: functional
[24] = test system: Mycobacterium tuberculosis; experiment: Antitubercular activity against Mycobacterium tuberculosis H37Rv assessed as bacterial growth inhibition at 250 ug/ml; format: functional
Aspergillus fumigatus = experiment: Antifungal activity against Aspergillus fumigatus MTCC 227 assessed as fungal growth inhibition by broth microdilution method; format: functional
PC-3 [25] = experiment: Anticancer activity against human PC-3 cells assessed as lethality by sulforhodamine B assay; format: functional; conditions: read-out: LC50 (the source's name)
MDA-MB-435 [26] = experiment: Anticancer activity against human MDA-MB-435 cells assessed as lethality by sulforhodamine B assay; format: functional; conditions: read-out: LC50 (the source's name)
HeLa = experiment: Anticancer activity against human HeLa cells assessed as reduction in cell viability incubated for 48 hrs by MTT assay; format: functional, cell-based
PC-3 [27] = experiment: Anticancer activity against human PC-3 cells assessed as cell growth inhibition by sulforhodamine B assay; format: functional
OVCAR-3 [28] = experiment: Anticancer activity against human OVCAR-3 cells assessed as tumor growth inhibition by sulforhodamine B assay; format: functional
MDA-MB-435 [29] = experiment: Anticancer activity against human MDA-MB-435 cells assessed as cell growth inhibition by sulforhodamine B assay; format: functional
MCF7 [30] = experiment: cells; conditions: Homo sapiens, MCF7, 48 h
PC-3 [31] = experiment: Anticancer activity against human PC-3 cells assessed as tumor growth inhibition by sulforhodamine B assay; format: functional
OVCAR-3 [32] = experiment: Anticancer activity against human OVCAR-3 cells assessed as lethality by sulforhodamine B assay; format: functional; conditions: read-out: LC50 (the source's name)
OVCAR-3 [33] = experiment: Anticancer activity against human OVCAR-3 cells assessed as cell growth inhibition by sulforhodamine B assay; format: functional
MDA-MB-435 [34] = experiment: Anticancer activity against human MDA-MB-435 cells assessed as tumor growth inhibition by sulforhodamine B assay; format: functional

Structure (SMILES): O=c1c(C2c3c(-c4ccccc4)n[nH]c3Oc3[nH]c(=S)n(-c4ccccc4)c(=S)c32)coc2ccccc12 (stereo not given)
- Activity [1]: 66.4%
- Activity [2]: 61.6%

Structure (SMILES): COc1ccc(C2c3c([nH]c(=O)[nH]c3=O)Oc3ncn(-c4ccccc4O)c(=N)c32)cc1 (stereo not given)
- IC50 (HepG2 [3]): 2.09 µM
- IC50 (HCT-116 [4]): 2.61 µM
- IC50 (DNA topoisomerase II): 0.776 µM
- IC50 (DNA): 29.9 µM
- IC50 (MCF7 [5]): 2.43 µM

Structure (SMILES): NC(=O)C1=C(N)Oc2[nH]nc(-c3ccccc3)c2C1c1coc2ccccc2c1=O (stereo not given)
- Activity [2]: 62.5%

Structure (SMILES): COc1ccc(C2C(C#N)=C(N)Oc3[nH]c(=S)[nH]c(=O)c32)cc1 (stereo not given)
- zone of inhibition at 1200 µg/mL (Bacillus cereus [6]): 14 mm
- zone of inhibition at 1200 µg/mL (Pseudomonas aeruginosa [7]): 12 mm
- zone of inhibition at 2500 µg/mL (Staphylococcus aureus [8]): 16 mm
- zone of inhibition at 1200 µg/mL (Escherichia coli [9]): 14 mm
- zone of inhibition at 1200 µg/mL (Staphylococcus aureus [10]): 12 mm
- zone of inhibition at 5000 µg/mL (Pseudomonas aeruginosa [11]): 30 mm
- zone of inhibition at 5000 µg/mL (Staphylococcus aureus [12]): 20 mm
- zone of inhibition at 2500 µg/mL (Escherichia coli [13]): 20 mm
- zone of inhibition at 5000 µg/mL (Escherichia coli [14]): 30 mm
- zone of inhibition at 2500 µg/mL (Pseudomonas aeruginosa [15]): 17 mm
- zone of inhibition at 5000 µg/mL (Bacillus cereus [16]): 22 mm
- zone of inhibition at 2500 µg/mL (Bacillus cereus [17]): 18 mm

Structure (SMILES): N#CC1=C(N)C2C(=NC(n3[nH]c(N)cc3=O)=NC2c2ccc(Cl)cc2)OC1=O (stereo not given)
- IC50 (NUGC): 2.21 µM
- IC50 (DLD-1): 2.13 µM

Structure (SMILES): CC(C)c1ccc(C2C(C#N)=C(N)Oc3[nH]c(=O)[nH]c(=O)c32)cc1 (stereo not given)
- diameter of the inhibition zone (DIZ) (Bacillus subtilis): 13 mm
- diameter of the inhibition zone (DIZ) (Escherichia coli [18]): 10.8 mm

Structure (SMILES): COc1cccc2c1C(=O)c1c(O)c3c(c(O)c1C2=O)C[C@@](O)(C(=O)CO)C[C@@H]3O[C@H]1C[C@H](N)[C@H](O)[C@H](C)O1 [DOXORUBICIN]
- IC50 (HepG2 [19]): 0.467 µM
- IC50 (PC-3 [20]): 0.467 µg/mL (≈ 0.859 µM)
- IC50 (HCT-116 [21]): 0.467 µM
- IC50 (HepG2 [3]): 7.94 µM
- IC50 (HCT-116 [4]): 2.61 µM
- IC50 (A549): 0.14 µM
- IC50 (DNA topoisomerase II): 0.94 µM
- IC50 (MCF7 [22]): 0.467 µM

Structure (SMILES): COc1ccc(C2c3c([nH]c(=O)[nH]c3=O)Oc3ncn(C(=S)Nc4ccccc4)c(=N)c32)cc1 (stereo not given)
- IC50 (HepG2 [3]): 2.09 µM
- IC50 (HCT-116 [4]): 2.61 µM
- IC50 (DNA topoisomerase II): 0.791 µM
- IC50 (DNA): 27.1 µM
- IC50 (MCF7 [5]): 2.43 µM

Structure (SMILES): Cc1nn(-c2ccccc2)c(-n2ccnc2)c1C1C(C#N)=C(N)Oc2c1c(=O)n(C)c(=O)n2C (stereo not given)
- inhibition at 100 µg/mL [23]: 30%
- MIC (Clostridium tetani): 100 µg/mL (≈ 219 µM)
- MIC (Salmonella typhimurium): 100 µg/mL (≈ 219 µM)
- IC50 (Plasmodium falciparum): 0.082 µg/mL (≈ 0.18 µM)
- MIC (Candida albicans): 500 µg/mL (≈ 1100 µM)
- inhibition at 250 µg/mL [24]: 37%
- MIC (Aspergillus fumigatus): 200 µg/mL (≈ 438 µM)

Structure (SMILES): COc1cccc2c1C(=O)c1c(O)c3c(c(O)c1C2=O)C[C@@](O)(C(=O)CO)C[C@@H]3O[C@H]1C[C@H](N)[C@H](O)[C@H](C)O1.Cl [DOXORUBICIN HYDROCHLORIDE]
- CC50 (PC-3 [25]): > 100 µM
- CC50 (MDA-MB-435 [26]): 91.8 µM
- IC50 (HeLa): < 10 µM
- GI50 (PC-3 [27]): < 0.1 µM
- TGI (OVCAR-3 [28]): 56.3%
- GI50 (MDA-MB-435 [29]): < 0.1 µM
- IC50 (MCF7 [30]): < 10 µM
- TGI (PC-3 [31]): 76.7%
- CC50 (OVCAR-3 [32]): > 100 µM
- GI50 (OVCAR-3 [33]): < 0.1 µM
- TGI (MDA-MB-435 [34]): 5.5%
